Source: ChEMBL document CHEMBL1153022, “Pyrrolidinoindoline alkaloids from Selaginella moellendorfii” (J Nat Prod, 2009)
The source made the active and inactive calls. The rule behind the calls is not given here.

Assays:
[1] = system: Staphylococcus aureus; assay: Antibacterial activity against Staphylococcus aureus up to 200 ug/ml by microdilution assay; format: functional, organism-based
[2] = target: Acetylcholinesterase (Homo sapiens) (UniProt P22303); assay: Inhibition of human AChE up to 200 ug/ml by Ellman's assay
Chain of Acetylcholinesterase (Homo sapiens) (P22303 whole entry): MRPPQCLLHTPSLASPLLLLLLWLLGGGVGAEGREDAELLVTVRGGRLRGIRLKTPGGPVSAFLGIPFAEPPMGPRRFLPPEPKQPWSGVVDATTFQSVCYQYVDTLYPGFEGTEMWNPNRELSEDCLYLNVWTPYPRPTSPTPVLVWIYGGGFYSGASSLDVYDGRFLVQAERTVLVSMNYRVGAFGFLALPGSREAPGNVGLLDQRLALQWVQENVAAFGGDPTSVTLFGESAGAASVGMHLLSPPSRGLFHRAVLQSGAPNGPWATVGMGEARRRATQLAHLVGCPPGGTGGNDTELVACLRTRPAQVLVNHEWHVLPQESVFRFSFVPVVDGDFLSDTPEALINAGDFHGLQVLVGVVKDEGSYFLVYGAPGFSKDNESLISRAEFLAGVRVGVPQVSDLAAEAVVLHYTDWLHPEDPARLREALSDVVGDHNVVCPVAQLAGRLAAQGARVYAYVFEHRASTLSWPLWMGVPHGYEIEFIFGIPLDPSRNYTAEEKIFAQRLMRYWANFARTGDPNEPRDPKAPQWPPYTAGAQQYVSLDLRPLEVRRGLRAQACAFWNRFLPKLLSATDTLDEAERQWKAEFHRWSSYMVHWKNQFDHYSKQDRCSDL

[3] = system: K562; assay: Cytotoxicity against human K562 cells up to 200 ug/ml by MTT assay; format: functional, cell-based
[4] = system: Escherichia coli; assay: Antibacterial activity against Escherichia coli up to 200 ug/ml by microdilution assay; format: functional, organism-based
[5] = system: A549; assay: Cytotoxicity against human A549 cells up to 200 ug/ml by SRB method; format: functional, cell-based
[6] = system: K562; assay: cells; conditions: Homo sapiens
Description: Cytotoxicity against human K562 cells by MTT assay

[7] = system: A549; assay: cells; conditions: Homo sapiens
Description: Cytotoxicity against human A549 cells by SRB method

| Structure (SMILES) | Activity [1] | Activity [2] | Activity [3] | Activity [4] | Activity [5] | IC50 [6] | IC50 [7] |
| --- | --- | --- | --- | --- | --- | --- | --- |
| C/C(=C\C[C@@]12CCN(C)[C@@H]1[N+](C)(C)c1ccccc12)C(=O)N[C@@H](Cc1ccccc1)C(=O)[O-] | inactive | inactive | inactive | inactive | inactive | – | – |
| C/C(=C\C[C@@]12CCN(C)[C@@H]1[N+](C)(C)c1ccccc12)C(=O)[O-] | inactive | inactive | inactive | inactive | inactive | – | – |
| COc1cccc2c1C(=O)c1c(O)c3c(c(O)c1C2=O)C[C@@](O)(C(=O)CO)C[C@@H]3O[C@H]1C[C@H](N)[C@H](O)[C@H](C)O1 [DOXORUBICIN] | – | – | – | – | – | 0.32 µM | – |
| O=c1[nH]cc(F)c(=O)[nH]1 [FLUOROURACIL] | – | – | – | – | – | – | 20.8 µM |
| C/C(=C\C[C@@]1(c2ccccc2N(C)C)CCN(C)C1=O)C(=O)O | inactive | inactive | inactive | inactive | inactive | – | – |
